# Source: US20180282281A1, “IMMUNOREGULATORY AGENTS” (FLEXUS BIOSCIENCES, INC., priority 2014, published 2018)
# Biological target: T1, human IDO1 (Homo sapiens, UniProt P14902)
# T1 construct: expressed in transfected cells
# Experiment: HEK293 human IDO1 cell-based IDO inhibition assay
# Conditions: HEK293 cells stably expressing human IDO1; 20 hours incubation; absorbance at 490 nm (Ehrlich reagent); 500 nM reference standard = 100% inhibition; read-out: HEK Human IDO-1 Potency
# Procedure: 1HEK293 cells were transfected with a pCDNA-based mammalian expression vector harboring human IDO1 cDNA (NM 002164.2) by electroporation. They were cultured in medium (DMEM with 10% FBS) containing 1 mg/ml G418 for two weeks. Clones of HEK293 cells that stably expressed human IDO1 protein were selected and expanded for IDO inhibition assay.
# The human IDOL/HEK293 cells were seeded at 10,000 cells per 50 μL per well with RPMI/phenol red free media contains 10% FBS in a 384-well black wall clear bottom tissue culture plate (Matrix Technologies LLC) 100 nL of certain concentration of compound was then added to each well using ECHO liquid handling systems. The cells were incubated for 20 hours in 37° C. incubator with 5% CO2.
# The compound treatments were stopped by adding Trichloroacetic Acid (Sigma-Aldrich) to a final concentration at 0.2%. The cell plate was further incubated at 50° C. for 30 minute. The equal volume supernatant (20 μL) and 0.2% (w/v) Ehrlich reagent (4-dimethylaminobenzaldehyde, Sigma-Aldrich) in glacial acetic acid were mixed in a new clear bottom 384-well plate. This plate was then incubated at room temperature for 30 minute. The absorbance at 490 nm was measured on Envision plate reader.
# T1 sequence (P14902 whole entry): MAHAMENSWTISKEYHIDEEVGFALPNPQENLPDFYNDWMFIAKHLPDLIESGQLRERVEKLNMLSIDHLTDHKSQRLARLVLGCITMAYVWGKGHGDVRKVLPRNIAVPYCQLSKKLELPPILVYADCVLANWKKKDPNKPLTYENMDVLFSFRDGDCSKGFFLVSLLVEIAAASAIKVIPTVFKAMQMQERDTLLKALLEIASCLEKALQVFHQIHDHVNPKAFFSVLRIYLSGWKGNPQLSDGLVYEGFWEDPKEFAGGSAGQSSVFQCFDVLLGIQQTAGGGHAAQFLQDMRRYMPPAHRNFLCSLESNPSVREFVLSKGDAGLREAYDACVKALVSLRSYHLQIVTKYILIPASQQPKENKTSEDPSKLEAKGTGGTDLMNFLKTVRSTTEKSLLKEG
row,Molecule,IC50 [nM]
1,N-(4-chlorophenyl)-2-(cis-4-(6-fluoroquinolin-4-yl)-1-hydroxycyclohexyl) propanamide [Example 232],< 50

# Same assay, conditions: read-out: HEK Human IDO-1 Potency
row,Molecule,IC50 [nM]
1,"Cc1cccc(NC(=O)[C@H](C)[C@H]2CC[C@@H](c3ccnc4ccc(F)cc43)CC2)c1 [Example 72, (R)-2-((cis)-4-(6-fluoroquinolin-4-yl)cyclohexyl)-N-(m-tolyl)propanamide]",< 50
2,"CCC(C(=O)Nc1ccc(Cl)cc1)[C@H]1CC[C@@H](Oc2ccnc3ccc(C(F)(F)F)cc23)CC1 (single isomer, unassigned) [Example 89a, N-(4-Chlorophenyl)-2-((cis)-4-((6-(trifluoromethyl)quinolin-4-yl)oxy)cyclohexyl)butanamide]",< 250
3,"C[C@@H](C(=O)Nc1ccc(Cl)cc1)[C@H]1CC[C@@H](c2ccnc3c2ncn3C)CC1 (single isomer, unassigned) [Example 251d, N-(4-chlorophenyl)-2-(4-(3-methyl-3H-imidazo[4,5-b]pyridin-7-yl)cyclohexyl)propanamide]",> 250
4,"C[C@@H](C(=O)N(C)c1ccccc1)[C@H]1CC[C@@H](c2ccnc3ccc(F)cc32)CC1 [Example 69, (R)-2-((cis)-4-(6-fluoroquinolin-4-yl)cyclohexyl)-N-methyl-N-phenylpropanamide]",> 250
5,"C[C@H](C(=O)Nc1ccc(Cl)cc1)[C@H]1CC[C@@H](c2ccnc3ncccc32)CC1 (single isomer, unassigned) [Example 148a]",> 250
6,CC1(CC(=O)Nc2ccc(Cl)cc2)CCN(c2ccnc3ccc(F)cc23)CC1 [Example 123],< 50
7,"CC(C(=O)O)c1ccc(C[C@@H](C(=O)Nc2ccc(C#N)cc2)[C@H]2CC[C@@H](c3ccnc4ccc(F)cc43)CC2)cc1 (stereo partly drawn) [Example 140, 2-(4-((R)-3-((4-Cyanophenyl)amino)-2-((cis)-4-(6-fluoroquinolin-4-yl)cyclohexyl)-3-oxopropyl)phenyl)propanoic Acid]",< 50
8,"Cc1ccc(NC(=O)[C@H](C)[C@H]2CC[C@@H](c3ccnc4ccc(F)cc43)CC2)cc1Cl [Example 80, (R)-N-(3-chloro-4-methylphenyl)-2-((cis)-4-(6-fluoroquinolin-4-yl)cyclohexyl)propanamide]",< 50
9,"Cc1ccc(NC(=O)C(C)N2CCC(Oc3ccnc4ccc(F)cc34)CC2)cc1 (single isomer, unassigned) [compound 110]",> 250
10,"Cc1ccc(NC(=O)C(C)N2CCC(Oc3ccc4nccc(Cl)c4c3)CC2)cc1 (racemic) [Example 92, (±)-2-(4-((4-Chloroquinolin-6-yl)oxy)piperidin-1-yl)-N-(p-tolyl)propanamide]",> 250
11,"CCCC(C(=O)NC1(C)CCCCC1)N1CCN(c2ccnc3ccc(F)cc23)CC1 (single isomer, unassigned) [Example 248, 2-(4-(6-Fluoroquinolin-4-yl)piperazin-1-yl)-N-(1-methylcyclohexyl)pentanamide]",> 250
12,"C[C@@H](C(=O)Nc1ccc(Cl)c(Cl)c1)[C@H]1CC[C@@H](c2ccnc3ccc(F)cc32)CC1 [Example 66, (R)-N-(3,4-dichlorophenyl)-2-((cis)-4-(6-fluoroquinolin-4-yl)cyclohexyl)propanamide]",< 50
13,"C[C@H](C(=O)Nc1ccc(Cl)cc1)[C@H]1CC[C@@H](c2ccnc3ccnn32)CC1 (single isomer, unassigned) [Example 144a]",< 50
14,"COC(=O)c1cccc(NC(=O)[C@H](C)[C@H]2CC[C@@H](c3ccnc4ccc(F)cc43)CC2)c1 [Example 67, methyl 3-((R)-2-((cis)-4-(6-fluoroquinolin-4-yl)cyclohexyl)propanamido)benzoate]",< 50
15,"C[C@@H](C(=O)Nc1ccc(Cl)cc1O)[C@H]1CC[C@@H](c2ccnc3ccc(F)cc32)CC1 [Example 238, (R)-N-(4-chloro-2-hydroxyphenyl)-2-(cis-4-(6-fluoroquinolin-4-yl)cyclohexyl)propanamide]",< 50
16,"C[C@@H](C(=O)Nc1ccccc1F)[C@H]1CC[C@@H](c2ccnc3ccc(F)cc32)CC1 [Example 77, (R)-N-(2-fluorophenyl)-2-((cis)-4-(6-fluoroquinolin-4-yl)cyclohexyl)propanamide]",< 50
17,"CCCC(C(=O)Nc1ccc(Cl)cc1)N1CCN(c2ccnc3ccc(F)cc23)CC1 (racemic) [Example 244, (±)—N-(4-Chlorophenyl)-2-(4-(6-fluoroquinolin-4-yl)piperazin-1-yl)pentanamide]",< 250
18,"CC(C(=O)Nc1ccc(Cl)cc1)C1CCC(c2ccnc3ccnn23)CC1 (racemic) [Example 143, (±)—N-(4-chlorophenyl)-2-(cis- and trans-4-(pyrazolo[1,5-a]pyrimidin-7-yl)cyclohexyl)propanamide]",< 250
19,"Cc1cc(Cl)ccc1NC(=O)[C@H](C)[C@H]1CC[C@@H](c2ccnc3ccc(F)cc32)CC1 [Example 64, (R)-N-(4-chloro-2-methylphenyl)-2-((cis)-4-(6-fluoroquinolin-4-yl)cyclohexyl)propanamide]",< 250

row,Molecule,IC50 [nM]
1,"CCC(C(=O)Nc1ccc(Cl)cc1)[C@H]1CC[C@H](Oc2ccnc3cc(C(F)(F)F)ccc23)CC1 (single isomer, unassigned) [Example 83b, N-(4-Chlorophenyl)-2-((trans)-4-((7-(trifluoromethyl)quinolin-4-yl)oxy)cyclohexyl)-2-butanamide]",< 250
2,"C[C@@H](C(=O)Nc1ccc(Cl)cc1)[C@H]1CC[C@@H](c2ccnc3ccnn32)CC1 (single isomer, unassigned) [Example 144b]",> 250
3,"CC(C(=O)Nc1ccc(F)cc1)N1CCC(Oc2ccnc3ccc(F)cc23)CC1 (single isomer, unassigned) [compound 105]",< 50
4,CCOc1ccc(NC(=O)C(C)N2CCC(Oc3ccnc4ccc(F)cc34)CC2)cc1 (stereo not drawn) [compound 107],< 50
5,"C[C@@H](C(=O)Nc1ccc(Cl)cc1)[C@H]1CC[C@@H](c2ccnc3ncccc32)CC1 (single isomer, unassigned) [Example 148b]",< 50
6,"CCC(C(=O)Nc1ccc(Cl)cc1)[C@H]1CC[C@H](Oc2ccnc3ccccc23)CC1 (mixture of isomers) [Example 85, (±)—N-(4-Chlorophenyl)-2-((trans)-4-(quinolin-4-yloxy)cyclohexyl)butanamide]",< 50
7,"C[C@@H](C(=O)Nc1cccc(Oc2ccccc2)c1)[C@H]1CC[C@@H](c2ccnc3ccc(F)cc32)CC1 [Example 73, (R)-2-((cis)-4-(6-fluoroquinolin-4-yl)cyclohexyl)-N-(3-phenoxyphenyl)propanamide]",< 250
8,CCOc1ccc(NC(=O)CC2(C)CCN(c3ccnc4ccc(F)cc34)CC2)cc1 [Example 125],< 250
9,"Cc1cc(F)ccc1NC(=O)[C@H](C)[C@H]1CC[C@@H](c2ccnc3ccc(F)cc32)CC1 [Example 59, (R)-N-(4-fluoro-2-methylphenyl)-2-((cis)-4-(6-fluoroquinolin-4-yl)cyclohexyl)propanamide]",> 250
10,CCOc1ccc(NC(=O)C(C)N2CCC(Oc3ccnc4ccc(F)cc34)CC2)cc1 (stereo not drawn) [compound 108],< 250
11,"CCOc1ccccc1NC(=O)[C@H](C)[C@H]1CC[C@@H](c2ccnc3ccc(F)cc32)CC1 [Example 62, (R)-N-(2-ethoxyphenyl)-2-((cis)-4-(6-fluoroquinolin-4-yl)cyclohexyl)propanamide]",< 250
12,"CC(C(=O)Nc1ccccc1)N1CCN(c2ccnc3ccc(F)cc23)CC1 (racemic) [Example 128, (±)-2-(4-(6-Fluoroquinolin-4-yl)piperazin-1-yl)-N-phenylpropanamide]",> 250
13,"CCC(C(=O)Nc1ccc(Cl)cc1)N1CCN(c2ccnc3ccc(F)cc23)CC1 (racemic) [Example 131, (±)—N-(4-Chlorophenyl)-2-(4-(6-fluoroquinolin-4-yl)piperazin-1-yl)butanamide]",< 50
14,"CCC(C(=O)Nc1ccc(Cl)cc1)[C@H]1CC[C@H](Oc2ccnc3cc(C(F)(F)F)ccc23)CC1 (single isomer, unassigned) [Example 83a, N-(4-Chlorophenyl)-2-((trans)-4-((7-(trifluoromethyl)quinolin-4-yl)oxy)cyclohexyl)-2-butanamide]",> 250
15,"C[C@H](C(=O)Nc1ccc(Cl)cc1)[C@H]1CC[C@H](c2ccnc3ccnn32)CC1 (single isomer, unassigned) [Example 144c]",< 250
16,"CC(C(=O)Nc1ccc(Cl)cc1)[C@]1(F)CC[C@H](c2ccnc3ccc(F)cc32)CC1 (mixture of isomers) [Example 233, (+/−)—N-(4-chlorophenyl)-2-(trans-1-fluoro-4-(6-fluoroquinolin-4-yl)cyclohexyl) propanamide]",< 50
17,O=C(CC1CCN(c2ccnc3ccc(F)cc23)CC1)Nc1ccc(Cl)cc1 [Example 116],> 250
18,"C[C@@H](C(=O)Nc1ccc(Cl)cc1)[C@H]1CC[C@H](c2ccnc3ncccc32)CC1 (single isomer, unassigned) [Example 148d]",< 250
19,Cc1ccc(NC(=O)CC2CCN(c3ccnc4ccc(F)cc34)CC2)c(F)c1 [Example 118],> 250
